# Results as given in patent US10077238B2, “Small molecule LFA-1 inhibitors” (ALLOCYTE PHARMACEUTICALS AG, priority 2014, dated 2018).
# Values joined by “and” are separate entries in the source; they are usually repeats but may differ in a detail not shown here. Identical values can stand only once.
# What was measured:
# Assay type in all cases: cell-based
# VLA-4 = target: T1, VLA-4 (Homo sapiens, UniProt P05556+P13612); assay: V well cell adhesion assay, VLA-4-mediated Jurkat cell binding to VCAM-1 (VLA-4 adhesion); conditions: Jurkat cells on VCAM-1 Fc; single experiments run in triplicates
# T1 construct: endogenous in cells; host or cells: Jurkat cells
# Description: Cell-Based Assay to Determine the Selectivity of the Compounds Over the Integrin VLA-4 (VLA-4 Adhesion)
# Purpose of the Assay: This V well cell adhesion assay measures the effect of the compounds on VLA-4-mediated Jurkat cell binding to VCAM-1. The assay has been successfully used in the past to determine the selectivity of small molecule LFA-1 inhibitors over the integrin VLA-4.
# Experimental Protocol: The adhesion assay was performed as described above for the Jurkat/ICAM-1 V well adhesion assay. Briefly, plates were coated with anti-human IgG mAb and blocked with BSA as described above. Instead of ICAM-1, recombinant human VCAM-1/CD106 Fc chimera (R&D Systems) was coated onto the plates (0.3 μg/mL in coating buffer). After incubation, labelled Jurkat cells in binding buffer were transferred to the wells (20,000 cells/well). The plates were immediately centrifuged at 1000 rpm for 4 min at rt (Centrifuge Eppendorf 5810 R) setting the brakeoff. Non-adherent cells were quantified in the tip of the Vbottom well using a fluorescence reader. IC50 values of the compounds were calculated using the software GraphPad Prism 6.
# LFA-1 [1] = target: T2, LFA-1 (Homo sapiens, UniProt P20701); assay: V well cell adhesion assay, LFA-1-mediated Jurkat cell binding to ICAM-1 (LFA-1 adhesion); conditions: Jurkat cells on ICAM-1/Fc; mean ±SD of ≥3 independent experiments in triplicates or single experiments in triplicates
# T2 construct: endogenous in cells; host or cells: Jurkat cells
# Description: Cell-Based Assay to Determine the Effect of the Compounds on LFA-1-Mediated Cell Adhesion (LFA-1 Adhesion)
# Purpose of the Assay: The V well cell adhesion assay measures the ability of the compounds to interfere with LFA-1-mediated binding to ICAM-1 at cellular level. The assay has been successfully used in the past to identify and characterize small molecules LFA-1 inhibitors.
# Experimental Protocol: The adhesion assay was performed in Vbottom 96-well plates as described previously [Weitz-Schmidt 2012]. Briefly, the plates were coated with anti-human IgG mAb diluted in coating buffer (20 mM Tris containing 150 mM NaCl, pH 8) (1 μg/mL) and incubated overnight at 4° C. The plates were flicked out and blocked with blocking buffer (50 mM Tris base, 150 mM NaCl, 1.5% BSA (w/v), pH 7.2) at 37° C. for 90 min. Then human recombinant ICAM-1/Fc (R&D Systems) diluted in coating buffer (0.3 μg/mL) was added to each well. The plates were incubated at 37° C. for 90 min and washed with binding buffer (50 mM Tris base, 150 mM NaCl, 1.5% BSA (w/v), 2 mM MgCl2, 2 mM MnCl2, 5 mM D-glucose monohydrate, pH 7.2-7.4) to remove unbound ligand.
# Jurkat cells were cultured under standard conditions as recommended by the American Type Culture collection (ATCC). The cells were fluorescently labelled with BCECF-AM in PBS (1 μg/mL) at 37° C. for 20 min in the dark, centrifuged and washed with PBS. The test compounds were dissolved in DMSO at 10 mM and serially pre-diluted in DMSO (100%) to avoid precipitation, before performing final dilution steps in binding buffer.
# The labelled Jurkat cells were re-suspended in binding buffer and test compounds or solvent control were added. The DMSO concentration was kept constant in all samples (1% DMSO as final assay concentration). After 40 min at 37° C. (LFA-1 activation and compound pre-incubation step) the cell suspension (3×10^5 cells/mL in binding buffer) was pipetted up and down and transferred to the ligand-coated microtiter V well plates (30 000 cells/well). The plates were centrifuged for 4 min at room temperature (rt) at 1000 rpm (Centrifuge Eppendorf 5810 R), setting the brake off Non-adherent cells that accumulated in the center of the Vbottom were quantified using a fluorescence reader with the filter sets allowing excitation at 485 nm and quantification of emission at 535 nm. The determination of the half maximal inhibitory concentration (IC50) of the compounds was calculated using the software GraphPad Prism 6.
# LFA-1 [2] = target: T2, LFA-1; assay: Flow cytometry, mAb R7.1 binding to LFA-1 expressed on leukocytes; conditions: Jurkat cells or human PBMCs, values of independent experiments; for inhibition at 1 µM: Jurkat
# Description: Measurement of mAb R7.1 binding to LFA-1 (mAb R7.1 binding)
# Purpose of the Assay: This flow cytometry assay determines the effect of the compounds on the binding of the anti-LFA-1 mAb R7.1 to LFA-1 expressed on leukocytes.
# Experimental Protocol: Jurkat cells or human peripheral blood mononuclear cells (PBMCs) were resuspended in assay buffer (50 mM Tris, 150 mM NaCl, 2 mM MgCl2, 1.5% BSA and 5 mM D-glucose monohydrate, pH7.2) at 2×10^6 cells/mL and 500 μL of this cell suspension (1×10^6 cells) were transferred into polypropylene tubes containing the test compounds diluted in 500 μL assay buffer. The samples were pre-incubated at 37° C. for 40 min, and centrifuged. The supernatants were removed and FITC-labelled anti-LFA-1 mAb R7.1 and PE-labeled anti-LFA-1 mAb TS2/4 (mAb TS2/4 is not affected by alpha I allosteric inhibitor binding to LFA-1) or appropriate isotype controls were added directly to each cell pellet. The pellets were then gently pipetted up and down and incubated on ice for 30 min in the dark. After the incubation step the cells were washed twice with PBS and resuspended in PBS.
# Antibody binding was analyzed by flow cytometry. Mean fluorescence intensities (MFI) were calculated using the CellQuest software. The values are expressed as % of solvent control (solvent control=100% binding).
# T1 sequence (P13612 34-1032): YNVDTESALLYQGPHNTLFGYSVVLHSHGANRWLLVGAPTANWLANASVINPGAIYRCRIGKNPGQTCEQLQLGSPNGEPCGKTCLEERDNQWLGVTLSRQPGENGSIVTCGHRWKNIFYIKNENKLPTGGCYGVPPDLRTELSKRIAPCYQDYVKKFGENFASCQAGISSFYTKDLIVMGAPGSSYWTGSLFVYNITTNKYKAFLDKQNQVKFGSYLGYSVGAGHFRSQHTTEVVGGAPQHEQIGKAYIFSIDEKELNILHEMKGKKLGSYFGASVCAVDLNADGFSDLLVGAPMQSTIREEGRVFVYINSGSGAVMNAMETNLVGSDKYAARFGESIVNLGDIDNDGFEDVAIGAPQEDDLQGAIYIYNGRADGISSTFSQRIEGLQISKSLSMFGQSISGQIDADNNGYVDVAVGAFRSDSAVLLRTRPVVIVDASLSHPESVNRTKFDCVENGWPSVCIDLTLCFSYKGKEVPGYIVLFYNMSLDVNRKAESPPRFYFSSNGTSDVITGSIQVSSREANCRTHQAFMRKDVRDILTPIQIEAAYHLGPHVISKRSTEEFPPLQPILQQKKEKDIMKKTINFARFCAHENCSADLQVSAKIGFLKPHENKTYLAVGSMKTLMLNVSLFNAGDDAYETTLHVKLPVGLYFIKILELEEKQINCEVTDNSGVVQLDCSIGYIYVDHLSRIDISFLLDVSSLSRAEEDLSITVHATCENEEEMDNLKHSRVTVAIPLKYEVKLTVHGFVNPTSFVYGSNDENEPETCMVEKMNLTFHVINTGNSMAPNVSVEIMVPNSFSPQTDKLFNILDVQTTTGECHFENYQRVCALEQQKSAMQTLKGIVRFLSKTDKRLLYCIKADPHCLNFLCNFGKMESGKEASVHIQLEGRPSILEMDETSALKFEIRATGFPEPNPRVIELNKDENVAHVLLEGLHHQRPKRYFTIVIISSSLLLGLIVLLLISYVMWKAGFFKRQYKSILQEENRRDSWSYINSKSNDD
# T1 sequence (P05556 21-798): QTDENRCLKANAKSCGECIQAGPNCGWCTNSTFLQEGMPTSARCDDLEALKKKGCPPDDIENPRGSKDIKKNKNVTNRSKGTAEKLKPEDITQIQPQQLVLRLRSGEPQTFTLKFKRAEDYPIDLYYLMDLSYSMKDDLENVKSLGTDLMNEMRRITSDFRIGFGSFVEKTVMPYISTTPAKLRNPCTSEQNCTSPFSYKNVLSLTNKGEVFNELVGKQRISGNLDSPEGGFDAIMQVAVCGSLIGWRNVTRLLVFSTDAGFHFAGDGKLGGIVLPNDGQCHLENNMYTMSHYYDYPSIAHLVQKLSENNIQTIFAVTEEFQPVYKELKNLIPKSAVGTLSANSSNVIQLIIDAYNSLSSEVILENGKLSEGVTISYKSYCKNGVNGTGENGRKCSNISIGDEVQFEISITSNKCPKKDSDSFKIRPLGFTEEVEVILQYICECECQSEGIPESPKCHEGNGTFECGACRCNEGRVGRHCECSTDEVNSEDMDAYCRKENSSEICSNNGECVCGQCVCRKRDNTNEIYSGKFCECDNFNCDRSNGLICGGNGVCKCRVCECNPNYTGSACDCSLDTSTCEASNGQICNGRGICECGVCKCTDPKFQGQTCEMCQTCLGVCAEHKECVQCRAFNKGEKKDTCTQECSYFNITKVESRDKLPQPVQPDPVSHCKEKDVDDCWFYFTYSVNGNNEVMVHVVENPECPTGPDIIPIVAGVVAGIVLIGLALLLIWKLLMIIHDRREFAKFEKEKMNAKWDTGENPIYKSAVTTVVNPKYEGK
# T2 sequence (P20701 26-1170): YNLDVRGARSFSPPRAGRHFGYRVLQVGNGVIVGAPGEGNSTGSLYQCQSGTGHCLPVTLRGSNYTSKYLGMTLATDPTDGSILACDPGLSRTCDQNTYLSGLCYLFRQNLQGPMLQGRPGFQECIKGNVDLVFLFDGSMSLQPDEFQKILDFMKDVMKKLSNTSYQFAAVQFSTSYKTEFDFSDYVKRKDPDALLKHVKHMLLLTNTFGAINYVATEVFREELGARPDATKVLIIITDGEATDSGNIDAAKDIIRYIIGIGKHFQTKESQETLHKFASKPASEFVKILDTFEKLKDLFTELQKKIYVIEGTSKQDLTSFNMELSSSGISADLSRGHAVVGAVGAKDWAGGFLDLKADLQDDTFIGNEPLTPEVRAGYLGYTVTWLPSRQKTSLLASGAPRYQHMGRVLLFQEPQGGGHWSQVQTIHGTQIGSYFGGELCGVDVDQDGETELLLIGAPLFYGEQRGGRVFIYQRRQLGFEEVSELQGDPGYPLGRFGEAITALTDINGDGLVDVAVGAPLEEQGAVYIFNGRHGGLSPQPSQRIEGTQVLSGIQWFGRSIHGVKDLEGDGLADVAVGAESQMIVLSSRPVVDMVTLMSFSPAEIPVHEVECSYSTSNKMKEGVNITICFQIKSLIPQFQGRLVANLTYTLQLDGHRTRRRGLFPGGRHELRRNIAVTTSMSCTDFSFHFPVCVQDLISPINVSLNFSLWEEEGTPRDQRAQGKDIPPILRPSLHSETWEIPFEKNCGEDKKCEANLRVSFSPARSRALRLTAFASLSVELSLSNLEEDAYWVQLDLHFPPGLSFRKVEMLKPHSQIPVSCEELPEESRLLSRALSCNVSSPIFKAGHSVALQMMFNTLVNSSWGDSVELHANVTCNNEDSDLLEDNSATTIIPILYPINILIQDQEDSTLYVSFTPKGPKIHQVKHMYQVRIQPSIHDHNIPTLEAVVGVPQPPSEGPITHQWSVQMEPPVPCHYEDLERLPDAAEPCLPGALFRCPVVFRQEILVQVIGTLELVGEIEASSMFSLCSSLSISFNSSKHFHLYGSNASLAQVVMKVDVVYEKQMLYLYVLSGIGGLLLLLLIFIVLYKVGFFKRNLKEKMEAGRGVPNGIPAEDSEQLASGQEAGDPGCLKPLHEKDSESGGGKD
# T2 sequence (P05107 23-769 partner): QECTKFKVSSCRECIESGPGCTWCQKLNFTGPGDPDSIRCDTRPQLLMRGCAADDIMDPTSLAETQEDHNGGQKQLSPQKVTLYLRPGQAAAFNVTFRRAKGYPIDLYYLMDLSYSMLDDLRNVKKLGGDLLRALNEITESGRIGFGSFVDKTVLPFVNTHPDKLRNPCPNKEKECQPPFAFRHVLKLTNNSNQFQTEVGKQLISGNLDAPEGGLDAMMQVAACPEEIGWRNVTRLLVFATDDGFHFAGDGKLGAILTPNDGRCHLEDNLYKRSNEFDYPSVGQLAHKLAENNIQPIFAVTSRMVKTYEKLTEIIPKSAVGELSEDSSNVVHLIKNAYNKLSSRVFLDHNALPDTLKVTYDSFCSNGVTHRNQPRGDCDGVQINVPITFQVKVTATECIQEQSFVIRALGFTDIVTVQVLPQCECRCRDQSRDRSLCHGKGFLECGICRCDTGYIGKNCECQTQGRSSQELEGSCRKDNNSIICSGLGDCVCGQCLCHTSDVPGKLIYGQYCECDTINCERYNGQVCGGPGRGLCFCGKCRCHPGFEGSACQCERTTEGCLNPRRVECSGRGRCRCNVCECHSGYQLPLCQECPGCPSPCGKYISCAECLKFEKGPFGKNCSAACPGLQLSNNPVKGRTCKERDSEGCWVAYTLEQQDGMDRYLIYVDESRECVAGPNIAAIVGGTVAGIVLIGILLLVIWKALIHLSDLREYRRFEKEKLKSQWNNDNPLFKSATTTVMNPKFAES
Compound,IC50 (VLA-4),IC50 (LFA-1 [1]),inhibition at 1 µM (LFA-1 [2]),mAb R7.1 binding % inhibition at 1 μM (LFA-1 [2])
"C[C@]12C(=O)N(c3cc(Cl)cc(Cl)c3)C(=O)[C@H]1C2(c1ccc(C#N)cc1)c1ccc(C#N)cc1 (racemic) [4v (racemate), rac-4-[(1S,5S)-6-(4-Cyanophenyl)-3-(3,5-dichlorophenyl)-1-methyl-2,4-dioxo-3-azabicyclo[3.1.0]hexan-6-yl]benzonitrile]",> 10000 nM,45 ± 14 nM,,
"C[C@]12C(=O)N(c3cc(Cl)cc(Cl)c3)C(=O)[C@H]1[C@H]2c1ccccc1 (racemic) [4′d (racemate), rac-(1R,5S,6S)-3-(3,5-Dichlorophenyl)-1-methyl-6-phenyl-3-azabicyclo[3.1.0]hexane-2,4-dione]",,1540 ± 646 nM,80.5%,
"O=C1C2C(C(=O)N1c1cc(Cl)cc(Cl)c1)C2(c1ccncc1)c1ccc(OC(F)(F)F)cc1 (single isomer, unassigned) [4w or 4′w diastereomer II]",,> 1000 nM,,45.7%
"O=C1C2C(C(=O)N1c1cc(Cl)cc(Cl)c1)C2(c1ccncc1)c1ccc(OC(F)(F)F)cc1 (single isomer, unassigned) [4w or 4′w diastereomer I]",> 10000 nM,215 ± 134 nM,,95.7%
"CC12C(=O)N(c3cc(Cl)cc(Cl)c3)C(=O)C1C2(c1ccncc1)c1ccc(OC(F)(F)F)cc1 (single isomer, unassigned) [4x or 4′x diastereomer I (racemate), rac-(1 S, 5S, 6R)- and rac-(1 S, 5S, 6S)-3-(3,5-Dichlorophenyl)-1-methyl-6-(pyridin-4-yl)-6-[4-(trifluoromethoxy)phenyl]-3-azabicyclo[3.1.0]hexane-2,4-dione]",> 10000 nM,202 nM and 286 nM,,98.4%
"CC12C(=O)N(c3cc(Cl)cc(Cl)c3)C(=O)C1C2(c1ccncc1)c1ccc(OC(F)(F)F)cc1 (single isomer, unassigned) [4x or 4′x diastereomer II (racemate), rac-(1 S, 5S, 6R)- and rac-(1 S, 5S, 6S)-3-(3,5-Dichlorophenyl)-1-methyl-6-(pyridin-4-yl)-6-[4-(trifluoromethoxy)phenyl]-3-azabicyclo[3.1.0]hexane-2,4-dione]",,> 1000 nM,,76.9%
"O=C1[C@@H]2[C@H](C(=O)N1c1cc(Cl)cc(Cl)c1)C2(c1ccc(OC(F)(F)F)cc1)c1ccc(OC(F)(F)F)cc1 [Compound 4p, 3-(3,5-Dichlorophenyl)-6,6-bis[4-(trifluoromethoxy)phenyl]-3-azabicyclo[3.1.0.]hexane-2,4-dione]",,> 1000 nM,74.3%,
"N#Cc1ccc(C2(c3ccc(C#N)cc3)[C@@H]3C(=O)N(c4cc(Cl)cc(Cl)c4)C(=O)[C@@H]32)cc1 [Compound 4u, 4-[6-(4-Cyanophenyl)-3-(3,5-dichlorophenyl)-2,4-dioxo-3-azabicyclo[3.1.0]hexan-6-yl]benzonitrile]",,> 1000 nM,87.1%,
